Consider two compounds from PMC6348444, “New Water-Soluble Copper(II) Complexes with Morpholine–Thiosemicarbazone Hybrids: Insights into the Anticancer and Antibacterial Mode of Action” (Journal of Medicinal Chemistry, 2018).

Bounds are passed on as bounds.

The test system of series [1] is A2780 cells. Kind of series: Cellular accumulation of Cu by ICP-MS. In kind it is cell-based, human. The settings on record: 24 h exposure, 1 μM. From the text:
The ability of anticancer drugs to penetrate biological membranes, tissues, and barriers underlies their biological, pharmacokinetic, and metabolic properties. These properties can be predicted by calculating physicochemical characteristics of drug candidates using molecular descriptors.[30] […] The results are shown in Table S7 in the Supporting Information. On the basis of the calculated physicochemical parameters, we determined if novel compounds belonged to the drug-like chemical space, which is commonly defined by the well-known Lipinski rule, or to the known drug space (KDS), which includes all small compounds in medical use.[31] […] Following the calculations, we determined the lipophilicity of all compounds experimentally (log D7.4, Tables 1 and 2). It is known that cancer cells accumulate hydrophilic compounds to a smaller extent relative to hydrophobic compounds, thereby affecting their activity. […] As expected, proligands were more lipophilic than the corresponding Cu(II) species, which are positively charged at physiological pH (Figure 3b). […] The lipophilicity of 2–5 increased in the following order 4 < 2 < 3 < 5, and correlated well with their cytotoxicity in cancer cells, with the exception of 3. Subsequently, we determined the total cellular accumulation of Cu in A2780 cells by ICP–MS upon 24 h exposure to 1–6 in comparison with CuCl2 (Table 2). […] The accumulation increased in the order 6 < 1 < 3 < 4 < 2 < 5.
Cellular accumulation of 1–6 was determined in A2780 cells. Cells were seeded into Cellstar 6-well plates (Greiner Bio-one) at a density of 60 × 10^4 cells/well (2 mL per well). After the cells were allowed to resume exponential growth for 24 h, they were exposed to 1–6 at 1 μM for 24 h at 37 °C. The cells were washed twice with 1 mL of PBS and lysed with RIPA lysis buffer for 5–10 min at 4 °C. The cell lysates were scraped from the wells and transferred to separate 1.5 mL microtubes. The supernatant was then collected after centrifugation (13 000 rpm, 4 °C for 15 min) and total protein content of each sample was quantified via Bradford’s assay. Cell lysates were transferred to 2 mL glass vials and then digested with ultrapure 65% HNO3 at 100 °C for 24 h. The resulting solution was diluted to 1 mL (2–4% v/v HNO3) with ultrapure Milli-Q water. Cu content of each sample was quantified by ICP–MS. In was used as an internal standard. Cu and In were measured at m/z 64 and m/z 115, respectively. Metal standards for calibration curve (0, 0.5, 1, 2, 5, 10, 20, and 40 ppb) were freshly prepared before each measurement. All readings were made in triplicates in He mode. For temperature-dependent cellular accumulation experiments, A2780 cells were seeded into 35 n 10 mm tissue culture plates at a density of 60 0 10^4 cells/plate. After the cells were allowed to resume exponential growth for 24 h, they were exposed to 2 at 3 μM for 10, 30, 60, and 120 min at 37 and 4 °C. The subsequent analysis was performed as described above. For energy-dependent experiments, A2780 cells were seeded into 35 5 10 mm tissue culture plates at a density of 1 0 10^6 cells/plate. After the cells were allowed to resume exponential growth for 24 h, they were preincubated with oligomycin (5 μM) for 1 or 4 h or with cycloheximide (100 μM) for 4 h and further co-incubated with 3 μM of 2 at 37 °C. To induce total starvation, after the cells were allowed to resume exponential growth for 24 h, RPMI media was replaced with HBSS, and cells were preincubated in HBSS for 1 h and further incubated with 3 μM of 2 for 1 h at 37 °C. The subsequent analysis was performed as described above.

Series [2] relates to Staphylococcus aureus CECT 86 (ATCC 12600). Kind of series: MIC microdilution, S. aureus. In kind it is cell-based. The settings on record: planktonic cells; for S. aureus MIC50: growth inhibited at 50%; for S. aureus MIC100: lowest concentration completely inhibiting growth. As for the experimental part:
(§1) Wild-type P. aeruginosa PAO1 strain CECT 4122 (ATCC 15692) and S. aureus CECT 86 (ATCC 12600) were obtained from the Spanish Type Culture Collection (CECT). All strains were routinely cultivated in TSB medium (Sharlab, Spain) at 37 °C. MIC assays were determined by the microdilution method using TSB broth following the method described by the Clinical and Laboratory standards Institute.[94] In brief, compounds were diluted in a 96-well microtiter plate (tissue culture-treated polystyrene; […]
On the technique in general: In broth dilution the organism is exposed to a series of concentrations in liquid medium.

For series [3], the system named is Pseudomonas aeruginosa PAO1 CECT 4122 (ATCC 15692). Kind of series: MIC microdilution, P. aeruginosa. It is filed as cell-based. The settings on record: planktonic cells; for P. aeruginosa MIC50: growth inhibited at 50%; for P. aeruginosa MIC100: lowest concentration completely inhibiting growth. As for the experimental part:
as §1

The nature of series [4]: Solubility in water. It is filed as physicochemical. The settings on record: sterile water stock solutions. As for the experimental part: Human ovarian carcinoma cells A2780 and A2780cisR and human embryonic kidney HEK293 were obtained from ATCC. A2780 and A2780cisR cells were cultured in RPMI 1640 medium containing 10% FBS. HEK293 were cultured in DMEM medium containing 10% FBS. All cells were grown in tissue culture 25 cm^2 flasks (BD Biosciences, Singapore) at 37 °C in a humidified atmosphere of 95% air and 5% CO2. All drug stock solutions were prepared in sterile water. The amount of Cu was determined by ICP–OES.

A short description of series [5]: Cyclic voltammetry, redox potentials. The settings on record: first reduction step. In kind it is physicochemical. As for the experimental part: To assess the redox properties of 1-6, detailed electrochemical and spectroscopic studies in various solvents were performed using cyclic voltammetry as well as EPR-spectroelectrochemistry. Additionally, the UV-vis spectra of 1-5 were measured (Figure S8). […] The second reduction step occurred at -1.8 V versus Fc^+/Fc (-1.16 V vs NHE) and was less reversible, indicating a ligand-based reduction. […] In aqueous solutions, the reduction potentials shifted to the less negative values, and reduction was less reversible as shown for 2 in Figure S10. […] Cyclic voltammetric experiments were performed as described previously.[46] The cyclic voltammograms were measured in the cathodic region in different solvents (DMSO, methanol, DMSO/H2O). The analytical purity grade LiClO4 (Sigma-Aldrich) and distilled and deionized water were used for preparation of 1 mM aqueous solutions of the investigated complexes 1-6. EPR spectra were recorded with the EMX plus. In situ UV-vis-NIR spectroelectrochemical measurements were performed on a spectrometer (Avantes, Model AvaSpec-2048x14-USB2 in the spectroelectrochemical cell kit ([…]3)) with the Pt-microstructured honeycomb working electrode, purchased from Pine Research Instrumentation. The cell was positioned in the CUV-UV Cuvette Holder (Ocean Optics) connected to the diode-array UV-vis-NIR spectrometer by optical fibers. UV-vis-NIR spectra were processed using the AvaSoft 7.7 software package. Halogen and deuterium lamps were used as light sources (Avantes, Model AvaLight-DH-S-BAL). The in situ EPR spectroelectrochemical experiments were carried out under an argon atmosphere in the EPR flat cell equipped with a large platinum mesh working electrode. The freshly prepared solutions were carefully purged with argon and the electrolytic cell was polarized in the galvanostatic mode directly in the cylindrical EPR cavity TM-110 (ER 4103 TM), and the EPR spectra were measured in situ.

For the compound `CN(C)C(=NN=Cc1ccc(CN2CCOCC2)cn1)[S][Cu][Cl]` [complex 2, [Cu(L^2)Cl]], the “cellular accumulation A2780” value in series [1] is given as 3.9 ± 0.6 nmol Cu/mg protein. In addition, in series [2], the “S. aureus MIC50” value was determined as 2 µg/mL and the “S. aureus MIC100” value was found to be 10 µg/mL. Besides, in series [3], the “P. aeruginosa MIC50” value was determined as 70 µg/mL and the “P. aeruginosa MIC100” value turned out to be 200 µg/mL. In addition, the solubility in water in series [4] is no more than 2000 µM. In series [5] (vs Fc+/Fc), the “E1/2 Red1 (DMSO) vs Fc+/Fc” value was “–0.80 V” and the “E1/2 Red1 (MeOH) vs Fc+/Fc” value is given as “–0.54 V”. Also, in series [5] (vs NHE (in brackets)), the “E1/2 Red1 (DMSO) vs NHE” value is recorded as “–0.16 V” and the “E1/2 Red1 (MeOH) vs NHE” value is “+0.10 V”. Moreover, the “E1/2 Red1 (H2O) vs Fc+/Fc” value in series [5] (H2O, vs Fc+/Fc) is on record as “–0.52 V”. Besides, the “E1/2 Red1 (H2O) vs NHE” value in series [5] (H2O, vs NHE (in brackets)) is “+0.12 V”.

Consider `[Cl][Cu][S]C(=NN=Cc1ccc(CN2CCOCC2)cn1)Nc1ccccc1` [complex 5, [Cu(L^5)Cl]], for which the “cellular accumulation A2780” value in series [1] was found to be 4.1 ± 0.9 nmol Cu/mg protein. In addition, in series [2], the “S. aureus MIC50” value was determined as 3 µg/mL and the “S. aureus MIC100” value amounted to 10 µg/mL. Besides, in series [3], the “P. aeruginosa MIC50” value was found to be 200 µg/mL and the “P. aeruginosa MIC100” value stood at 450 µg/mL. For the same compound, the solubility in water in series [4] is no more than 2000 µM. Further, in series [5] (vs Fc+/Fc), the “E1/2 Red1 (DMSO) vs Fc+/Fc” value is reported as “–0.77 V” and the “E1/2 Red1 (MeOH) vs Fc+/Fc” value is given as “–0.48 V”. In addition, in series [5] (vs NHE (in brackets)), the “E1/2 Red1 (DMSO) vs NHE” value is recorded as “–0.13 V” and the “E1/2 Red1 (MeOH) vs NHE” value was “+0.16 V”.
